Results published in BindingDB's records for doi:10.1016/j.bmcl.2008.01.127 (Johnson & Johnson Pharmaceutical Research and Development, 2008).

experiment: Antagonist activity at rabbit CXCR2 by neutrophil chemotaxis assay

Row | Compound | IC50 [nM]
1 | CS(=O)(=O)NC(=O)CCCc1c(-c2ccc(F)cc2)[nH]c2ccc(C#N)cc12 [4-(5-cyano-2-(4-fluorophenyl)-1H-indol-3-yl)-N-(methylsulfonyl)butanamide] | 2100
2 | CS(=O)(=O)NC(=O)NCCc1c(-c2ccc(F)cc2)[nH]c2ccc(Br)cc12 [1-(2-(5-bromo-2-(4-fluorophenyl)-1H-indol-3-yl)ethyl)-3-(methylsulfonyl)urea] | 5800
3 | O=C(NCCc1c(-c2ccc(F)cc2)[nH]c2ccc(Br)cc12)NS(=O)(=O)c1ccccc1 [1-(2-(5-bromo-2-(4-fluorophenyl)-1H-indol-3-yl)ethyl)-3-(phenylsulfonyl)urea] | 1700

Continued, values first:

Row | IC50 [nM] | Compound
4 | 3000 | N#Cc1ccc2[nH]c(-c3ccc(F)cc3)c(CCCC(=O)NS(=O)(=O)C(F)(F)F)c2c1 [4-(5-cyano-2-(4-fluorophenyl)-1H-indol-3-yl)-N-(trifluoromethylsulfonyl)butanamide]
5 | 1300 | CNS(=O)(=O)NC(=O)CCCc1c(-c2ccc(F)cc2)[nH]c2ccc(C#N)cc12 [4-[5-cyano-2-(4-fluorophenyl)-1H-indol-3-yl]-N-[(methylamino)sulfonyl]butanamide]
6 | 700 | CN(C)S(=O)(=O)NC(=O)CCCc1c(-c2ccc(F)cc2)[nH]c2ccc(C#N)cc12 [4-[5-cyano-2-(4-fluorophenyl)-1H-indol-3-yl]-N-(dimethylsulfamoyl)butanamide]
